SMILES strings stand for the structures.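 Each compound was tested at five concentrations against cells in 96-well plates for 48 hours. Abbreviation: GI50, concentration required for 50% inhibition of growth. The concentration for full growth arrest is given as TGI.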

The results in this text go back to PubChem BioAssay (NCI).

Some test systems named below: 786-0 renal; BT-549 breast; DU-145 prostate; HOP-92 NSCLC; HT29 colon; IGROV1 ovarian; KM12 colon; MOLT-4 leukemia; SF-295 CNS; TK-10 renal.
Assay in all cases: inhibition of tumour cell growth, NCI panel, 48 h

With `Cc1ccc(C)c2c1C(=O)N(c1ccc(F)cc1F)C2=O`, the GI50 was > 100 µM in the assay on 786-0 renal; > 100 µM with BT-549 breast; > 100 µM in the assay on DU-145 prostate; 1.11 µM with HOP-92 NSCLC; > 100 µM in the assay on HT29 colon; > 100 µM with IGROV1 ovarian. Further, the GI50 in the assay with KM12 colon, in the assay with MOLT-4 leukemia, in the assay on SF-295 CNS and in the assay on TK-10 renal was > 100 µM in each case. In addition, the TGI with 786-0 renal, in the assay on BT-549 breast, in the assay on DU-145 prostate, in the assay on HOP-92 NSCLC, in the assay on HT29 colon and in the assay with IGROV1 ovarian was > 100 µM each time. The TGI in the assay with KM12 colon, with MOLT-4 leukemia, in the assay with SF-295 CNS and in the assay on TK-10 renal was > 100 µM each time.
